Measured values: patent US11447511B2, “Dioxolane analogues of uridine for the treatment of cancer” (MEDIVIR AB, priority 2014, dated 2022)

Assays:
HEP3B = test: Cell cytotoxicity assay, HEP3B; type: cell-based; details: HEP3B cells
Description: (§1) Cells were seeded 24 hours prior to compound addition. Each test compound (serially diluted from 100 μM) was added to Huh7 (1.5×10^4 cells/well) or HepG2 (1.5×10^4 cells/well), and allowed to incubate for 5 days at 37° C. A medium only control was used to determine the minimum absorbance value and an untreated cell value. At the end of the growth period, XTT dye from Polysciences Europe GmbH was added to each well. The absorbance at 450 nm with a reference wavelength of 600 nm was read with a Sunrise (Tecan) using the medium only control wells as blanks. The 50% inhibition value (CC50) was determined by comparing the degree of inhibition (compared to cell control) plotted against compound concentration. Results from the dilution series were fitted to a sigmoidal dose-response curve.
(§2) Compounds of the invention were evaluated in these assays to assess the stability in human intestinal S9 fraction (HIS9) and human liver S9 fraction (HLS9), and for Cell Cytotoxicity in HUH7, HEP3B and HEPG2 cells.

HepG2 = test: Cell cytotoxicity assay, HEPG2; type: cell-based; details: HepG2 cells, 5 days at 37° C., XTT dye
Description: as §1, §2

[1] = Stability in human liver S9 fraction (HLS9); type: in vitro ADME; details: human liver S9 0.4 mg protein/mL, 5 μM test compound, 37° C.; for microsomal CLint at 5 μM: liver S9 fraction, pH 7.4
Description: (§3) Stability in Human Intestinal S9 Fraction (HIS9) and in Human Liver S9 Fraction (HLS9),
(§4) Stock solutions of each test compound (10 mM) were prepared in DMSO and stored at −20° C. Prior to the start of the experiment, the test compounds were diluted to 500 μM in 50% acetonitrile in water. The reaction mixture was prepared in a total volume of 250 μL containing 5 mM MgC2, 1 mM NADPH and 5 μM test compound in 50 mM potassium phosphate buffer (pH 7.4). The reaction was initiated by addition of human liver or intestinal S9 fraction with a final concentration of 0.4 mg protein/mL (Xeno Tech). The reaction mixture was incubated on an orbital shaker at 37° C. At the desired time points (0, 10, 30 and 60 minutes) aliquots of 50 μL were taken and the reaction was stopped by mixing with 150 μL acetonitrile containing internal standard. Standard solutions of each test compound were prepared from the 500 μM solution by diluting the solution to a final concentration of 5 μM in boiled human S9 (0.4 mg protein/mL), 5 mM MgCl2 and 50 mM potassium phosphate buffer (pH 7.4). The standards and samples were kept on ice for 30 min then centrifuged at 3 000 g for 20 minutes at 10° C., there after 10 μL of supernatant was mixed with 200 μL 50% acetonitrile in water. 0.5 μM of each test compound in 50% acetonitrile in water was injected into the LC/MS-MS to determine the daughter ion, declustring potential (DP), collision energy (CE) and collision cell exit potential (CXP) in order to develop a LC/MS-MS method. The compounds were separated using a C18 column with a QTRAP5500 system. The mobile phase consisted of solvent A (98% water, 2% acetonitrile, 0.1% acetic acid or 10 mM ammonium acetate) and solvent B (80% acetonitrile, 20% water, 0.1% acetic acid or 10 mM ammonium acetate). Elution of the compounds was performed by using a gradient of solvent B from 0% to 100%. 5 μL of standard points and samples were injected for analysis with QTRAP5500.
(§5) The amount of parent compound was determined on the basis of the peak area for each time point compared to standard which was set to 5 μM. Intrinsic clearance (CLint) and half-life (t1/2) were determined from the disappearance curves of the test compound using Excel software.

Huh7 = test: Cell cytotoxicity assay, HUH7; type: cell-based; details: Huh7 cells, 5 days at 37° C., XTT dye
Description: as §1, §2

[2] = Stability in human intestinal S9 fraction (HIS9); type: in vitro ADME; details: human intestinal S9 0.4 mg protein/mL, 5 μM test compound, 37° C.
Description: as §3, §4, §5

[3] = Cell cytotoxicity assay, HEPG2; type: cell-based; details: human; HepG2 cells, 5 days at 37° C., XTT dye
Description: as §1, §2

[4] = Cell cytotoxicity assay, HUH7; type: cell-based; details: human; Huh7 cells, 5 days at 37° C., XTT dye
Description: as §1, §2

SMILES | CC50 (HEP3B) | CC50 (HepG2) | CLint Liver S9 [1] | CC50 (Huh7) | CLint Intestinal S9 [2] | CC50 at 5 days [3] | microsomal CLint at 5 μM [1] | CC50 at 5 days [4] | microsomal CLint at 5 μM ([2]; intestinal S9 fraction, pH 7.4)
CC[C@@H](C)OC(=O)[C@H](C)NP(=O)(OC[C@H]1OC[C@@H](n2ccc(N)nc2=O)O1)Oc1ccc([Si](C)(C)C)cc1 (single isomer, unassigned; dia-1) [11 dia-1] | 18 nM | 54 nM | 51 µL/min/mg | 26 nM | 6 µL/min/mg | – | – | – | –
COC(=O)[C@H](C)NP(=O)(OC[C@H]1OC[C@@H](n2ccc(N)nc2=O)O1)Oc1ccccc1 (single isomer, unassigned; dia-2) [26 dia-2] | 4020 nM | 1060 nM | 10 µL/min/mg | 4730 nM | 6 µL/min/mg | – | – | – | –
COC(=O)[C@H](Cc1ccccc1)NP(=O)(OC[C@H]1OC[C@@H](n2ccc(N)nc2=O)O1)Oc1ccccc1 (single isomer, unassigned) [28 dia-2] | – | – | – | – | – | 2720 nM | 20 µL/min/mg | 15600 nM | 40 µL/min/mg
CCCC(CCC)COC(=O)[C@H](C)NP(=O)(OC[C@H]1OC[C@@H](n2ccc(N)nc2=O)O1)Oc1ccc(Br)cc1 (single isomer, unassigned; dia-1) [23 dia-1] | 10 nM | 8.6 nM | 186 µL/min/mg | – | 32 µL/min/mg | – | – | – | –
CC(C)OC(=O)[C@H](C)NP(=O)(OC[C@H]1OC[C@@H](n2ccc(=O)[nH]c2=O)O1)Oc1ccccc1 (stereo partly drawn) [Example 1, (2S)-isopropyl 2-(((((2S,4S)-4-(2,4-dioxo-3,4-dihydropyrimidin-1(2H)-yl)-1,3-dioxolan-2-yl)methoxy)(phenoxy)phosphoryl)amino)propanoate] | – | – | – | – | 6 µL/min/mg | > 100000 nM | 12 µL/min/mg | > 100000 nM | –
CC(C)OC(=O)[C@H](C)NP(=O)(OC[C@H]1OC[C@@H](n2ccc(N)nc2=O)O1)Oc1ccccc1 (single isomer, unassigned) [Example 2] | – | – | – | – | 6 µL/min/mg | 248 nM | 13 µL/min/mg | 1750 nM | –
CCC[C@H](C)OC(=O)[C@H](C)NP(=O)(OC[C@H]1OC[C@@H](n2ccc(N)nc2=O)O1)Oc1ccc(C2CC2)cc1 (single isomer, unassigned; dia-1) [16 dia-1] | 106 nM | 151 nM | 50 µL/min/mg | 1200 nM | 8 µL/min/mg | – | – | – | –
CCCC(CCC)COC(=O)[C@H](C)NP(=O)(OC[C@H]1OC[C@@H](n2ccc(N)nc2=O)O1)Oc1ccccc1 (single isomer, unassigned; dia-2) [8 dia-2] | 35 nM | 17 nM | – | 74 nM | – | – | – | – | –
CCC[C@H](C)OC(=O)[C@H](C)NP(=O)(OC[C@H]1OC[C@@H](n2ccc(N)nc2=O)O1)Oc1ccccc1 (single isomer, unassigned; dia-2) [20 dia-2] | 78 nM | 60 nM | 25 µL/min/mg | 73 nM | 6 µL/min/mg | – | – | – | –
Nc1ccn([C@@H]2CO[C@H](COP(=O)(N[C@@H](Cc3ccccc3)C(=O)OC3CCCCC3)Oc3ccc(Br)cc3)O2)c(=O)n1 (single isomer, unassigned; dia-1) [7 dia-1] | – | 240 nM | 148 µL/min/mg | 1020 nM | 147 µL/min/mg | – | – | – | –
COC(=O)[C@H](C)NP(=O)(OC[C@H]1OC[C@@H](n2ccc(N)nc2=O)O1)Oc1ccccc1 (single isomer, unassigned; dia-1) [26 dia-1] | 4340 nM | 1210 nM | 7 µL/min/mg | – | 6 µL/min/mg | – | – | – | –
CC[C@@H](C)OC(=O)[C@H](C)NP(=O)(OC[C@H]1OC[C@@H](n2ccc(N)nc2=O)O1)Oc1ccccc1 (single isomer, unassigned; dia-2) [18 dia-2] | 113 nM | 65 nM | 30 µL/min/mg | 76 nM | 7 µL/min/mg | – | – | – | –
C[C@H](NP(=O)(OC[C@H]1OC[C@@H](n2ccc(N)nc2=O)O1)Oc1ccccc1)C(=O)OCc1ccccc1 (single isomer, unassigned; dia-2) [19 dia-2] | 58 nM | 14 nM | 24 µL/min/mg | 71 nM | 17 µL/min/mg | – | – | – | –
CC(C)OC(=O)[C@@H](C)NP(=O)(OC[C@H]1OC[C@@H](n2ccc(N)nc2=O)O1)Oc1ccccc1 (single isomer, unassigned; dia-1) [17 dia-1] | – | 50000 nM | 6 µL/min/mg | 50000 nM | 6 µL/min/mg | – | – | – | –
COC(=O)[C@H](C)NP(=O)(OC[C@H]1OC[C@@H](n2ccc(N)nc2=O)O1)Oc1ccc(Br)cc1 (single isomer, unassigned; dia-1) [27 dia-1] | – | 151 nM | 38 µL/min/mg | 1440 nM | 11 µL/min/mg | – | – | – | –
C[C@H](NP(=O)(OC[C@H]1OC[C@@H](n2ccc(N)nc2=O)O1)Oc1cccc2ccccc12)C(=O)OC1CCCC1 (single isomer, unassigned; dia-1) [22 dia-1] | – | 12 nM | 49 µL/min/mg | 33 nM | 52 µL/min/mg | – | – | – | –
CCC[C@H](C)OC(=O)[C@H](C)NP(=O)(OC[C@H]1OC[C@@H](n2ccc(N)nc2=O)O1)Oc1ccccc1 (single isomer, unassigned; dia-1) [20 dia-1] | – | 74 nM | 45 µL/min/mg | 216 nM | 21 µL/min/mg | – | – | – | –
CCC(CC)COC(=O)[C@H](C)NP(=O)(OC[C@H]1OC[C@@H](n2ccc(N)nc2=O)O1)Oc1ccccc1 (single isomer, unassigned; dia-1) [15 dia-1] | – | 37 nM | 167 µL/min/mg | 25 nM | 87 µL/min/mg | – | – | – | –
CCC[C@H](C)OC(=O)[C@H](C)NP(=O)(OC[C@H]1OC[C@@H](n2ccc(N)nc2=O)O1)Oc1ccc(C2CC2)cc1 (single isomer, unassigned; dia-2) [16 dia-2] | 53 nM | 130 nM | 59 µL/min/mg | 152 nM | 8 µL/min/mg | – | – | – | –
CC[C@@H](C)OC(=O)[C@H](C)NP(=O)(OC[C@H]1OC[C@@H](n2ccc(N)nc2=O)O1)Oc1ccc([Si](C)(C)C)cc1 (single isomer, unassigned; dia-2) [11 dia-2] | 31 nM | 54 nM | 81 µL/min/mg | – | 28 µL/min/mg | – | – | – | –
CCC(CC)COC(=O)[C@H](C)NP(=O)(OC[C@H]1OC[C@@H](n2ccc(N)nc2=O)O1)Oc1ccccc1 (single isomer, unassigned; dia-2) [15 dia-2] | – | 19 nM | 95 µL/min/mg | 26 nM | 36 µL/min/mg | – | – | – | –
CC[C@@H](C)OC(=O)[C@H](C)NP(=O)(OC[C@H]1OC[C@@H](n2ccc(N)nc2=O)O1)Oc1ccccc1 (single isomer, unassigned; dia-1) [18 dia-1] | 228 nM | 248 nM | 21 µL/min/mg | 461 nM | 6 µL/min/mg | – | – | – | –
